Values joined by “and” are separate entries in the source; they are usually repeats but may differ in a detail not shown here. Equal values may be shown once. No end group written: not given here.
Tests used:
HDL cholesterol = HDL cholesterol in rabbits after injection of phospholipid/peptide complex; format: in vivo, rabbit; conditions: for Increase in HDL Cholesterol (%): 8 mg/kg i.v. as peptide/DPPC complexes
Description: Small discoidal particles consisting of phospholipid (DPPC) and peptide 146 (SEQ ID NO:146) were prepared following the cholate dialysis method. The phospholipid was dissolved in chloroform and dried under a stream of nitrogen. The peptide was dissolved in buffer (saline) at a concentration of 1-2 mg/ml. The lipid film was redissolved in buffer containing cholate (43° C.) and the peptide solution was added at a 3-1 phospholipid/peptide ratio. The mixture was incubated overnight at 43° C. and then dialyzed at 43° C. (24 hr.), room temperature (24 hr.) and 4° C. (24 hr.), with three changes of buffer (large volumes) at temperature point. The complexes were filter sterilized (0.22μ) for injection and storage at 4° C.
Male New Zealand White rabbits (2.5-3 kg) were injected intravenously with a dose of phospholipid/peptide complex (8 mg/kg bodyweight peptide 146 (SEQ ID NO:146) or 10 mg/kg bodyweight ApoA-I, expressed as peptide or protein content) in a single bolus injection not exceeding 10-15 ml. The animals were slightly sedated before the manipulations. Blood samples (collected on EDTA) were taken before and 5, 15, 30, 60, 240 and 1440 minutes after injection. The hematocrit (Hct) was determined for each sample. Samples were aliquoted and stored at −20° C. before analysis.
Plasma Lipids. The total plasma cholesterol, plasma triglycerides and plasma phospholipids were determined enzymatically using commercially available assays according to the manufacturer's protocols (Boehringer Mannheim, Mannheim, Germany and Biomerieux, 69280, Marcy-l'étoile, France).
Lipoprotein Profiles. The plasma lipoprotein profiles of the fractions obtained after the separation of the plasma into its lipoprotein fractions were determined by spinning in a sucrose density gradient. The fractions were collected and in each individual fraction the phospholipid and cholesterol content was measured enzymatically.

[1] = Lipid binding by fluorescence spectroscopy
Description: The lipid binding properties of the peptides synthesized in Section 6, supra, were tested by fluorescence measurements with labeled peptides, in the present case Tryptophane (Trp or W) or Naphtylalanine (Nal). The fluorescence spectra were recorded on a Fluoromax from Spex (Jobin-Yvon) equipped with a Xenon lamp of 150 W, two monochromators (excitation and emission), a photomultiplier R-928 for detection sensitive in the red up to 850 nm and a thermoelectric magnetic stirred cell holder. Quartz Suprasil cuvettes were used for measurements in the micromolar concentration range. A device of variable slits (from 0.4 to 5 nm) allows modulation of the incident and emitted intensities according to the concentration of peptide used. The reported values are in general the average of between 2 to 4 spectra. The peptide concentration is determined by absorption spectrometry on a Philips PU 8800 using the absorption band of the Trp (ε280 nm=5,550 M^−1 cm^−1 in Tris buffer) or the Nal (ε224 nm =92,770 M^−1 cm^−1 in methanol)
Fluorescence spectra of the peptides were recorded between 290 nm and 450 nm in Tris-HCl buffer (20 mM, pH=7.5), in the presence and absence of lipidic vesicles. The small unilamellar vesicles were formed after rehydration in buffer of the lyophilized phospholipids, dispersion and tip sonification under a N2 stream. The lipids used were either Egg PC/Chol. (20:1) or POPC/Chol. (20:1). The spectra were recorded at a peptide concentration of 2 μM and at a temperature of 37° C. The fluorescence reference standard in the case of Trp was N-acetyltryptophanylamide (NATA).
Lipid binding studies were done through progressive lipidic vesicle addition to the peptide in solution at 2 μM (slits: 5 nm in excitation and 1.5 nm in emission). Dilution effects were taken into account for the fluorescence intensity determination. The lipid concentrations were varied from 10 to 600 μM and the molar ratio of lipid to peptide (Ri) was varied from 5 to 300. The wavelength of excitation was set at 280 nm for both Trp and Nal.
The data were directly recorded and treated by an IBM-PC linked to the spectrofluorimeter through the DM3000F software from Spex. The spectra were corrected by substraction of the solvent contribution and by application of a coefficient given by the constructor taking into account the variation of the photomultiplier response versus the wavelength.
The fluorescence spectra of the peptides were characterized by the wavelength at their maximum of fluorescence emission and by their quantum yield compared to NATA in the case of peptides labeled with a tryptophane. The process of binding to lipids was analyzed by calculating the shift of the wavelength at the maximum of fluorescence emission, (λmax), and the variation of the relative fluorescence intensity of emission versus the lipid concentration. The relative fluorescence intensity is defined as the following ratio: (I-I0)λmax/I0λmax. I and I0 are both measured at the (λmax) corresponding to the initial free state of the peptide, i.e., without lipids. I is the intensity at a defined lipid to peptide ratio and I0 is the same parameter measured in absence of lipids. The absence of these variations is relevant of the absence of interactions of the peptides with the lipids.

PVLELFENLLERLLDALQKKLK [peptide 146]
duration of the increase in cholesterol of the HDL cholesterol fractions (HDL cholesterol; 8 mg/kg as peptide/DPPC complexes, apparent at 5 min.): approximately 24 hr | Increase in HDL Cholesterol (%) (HDL cholesterol; 5 min.): 31.3% | Increase in HDL Cholesterol (%) (HDL cholesterol; 15 min.): 60.4% | Increase in HDL Cholesterol (%) (HDL cholesterol; 60 min.): 42.9% | Increase in HDL Cholesterol (%) (HDL cholesterol; 240 min., 8 mg/kg): 90% and 90.2% | Increase in HDL Cholesterol (%) (HDL cholesterol; 1440 min.): 71.2% | mobilization of peripheral cholesterol (in words) (HDL cholesterol; peptide/DPPC complexes 8 mg/kg): induces rapid and efficient mobilization of peripheral cholesterol

PVLELFENLWERLLDALQKKLK [peptide 149]
lipid to peptide molar ratio at which burying of the tryptophane residue is maximal ([1]; EPC/Chol (20:1) SUVs): about 30 | λmax (nm) ([1]; Ri 0 (buffer, no lipids), 2 μM): 347 nm | I/Io ([1]; Ri 0, 2 μM peptide, 37° C.): 0 | I/Io ([1]; Ri 5): 19.7 | λmax (nm) ([1]; Ri 5): 334.5 nm | I/Io ([1]; Ri 10): 31.4 | λmax (nm) ([1]; Ri 10): 329 nm | I/Io ([1]; Ri 30): 49.4 | λmax (nm) ([1]; Ri 30): 325.5 nm | I/Io ([1]; Ri 60): 64.3 | λmax (nm) ([1]; Ri 60): 325 nm | I/Io ([1]; Ri 100): 77 | λmax (nm) ([1]; Ri 100): 325.5 nm | I/Io ([1]; Ri 200): 84 | λmax (nm) ([1]; Ri 200): 325 nm | wavelength for the tryptophane maximum fluorescence emission after binding ([1]; bound to EPC/Chol (20:1) SUVs): 325 nm | lipid binding (in words) ([1]; small unilamellar vesicles): binds very effectively

From patent US7273848B2, “Apolipoprotein A-I agonists and their use to treat dyslipidemic disorders” (priority 1997, dated 2007)
